From patent US9394298B2, “Pyrroloquinoline quinone tetraalkali salt and crystal thereof, methods for producing these, and composition” (Mitsubishi Gas Chemical Company, Inc., priority 2012, dated 2016)
Where a name gives a salt, the structure may show the parent alone. Read-outs that look alike come from different tables or passages of the source.

How the values were obtained:
Format in all cases: physicochemical
[1] = Test of the reactivity with ascorbic acid; conditions: for State of the solution after adding ascorbic acid, after 2 hours / State of the solution after adding ascorbic acid, after 1 day: 1 g/L PQQ salt in water, 1 mL + 0.5 mL of 100 g/L ascorbic acid aqueous solution
Method: Each PQQ salt shown in Table 5 was dissolved in water so as to become 1 g/L. 0.5 mL of a 100 g/L ascorbic acid aqueous solution was added to 1 mL of the solution, and its states after 2 hours, after 1 day and after 2 days were observed.

Test of the solubility = conditions: for Solubility Ratio: ratio to Comp. Ex. 1 (Na2PQQ = 1); for Solubility: room temperature of 23° C., calculated from absorbance at 260 nm
Method: 50 mg of each PQQ salt shown in Table 6 was added to 0.5 mL of water so as to become supersaturated. Here, in the case where a PQQ salt was completely dissolved in this concentration, the amount of water was reduced. Thereafter, an ultrasonic wave was applied on the solution at room temperature of 23° C. The solution was subjected to a centrifugal separator; and the supernatant was subjected to a UV measurement by diluting it using a phosphoric acid buffer (pH: 7.4, manufactured by Gibco Corp.) so that the absorbance at 260 nm became in the range of 0 to 1. The solubility was calculated from the absorption.

[2] = Test of the dissolution speed; conditions: 1 mg salt in 2 mL water; for Absorbance After 1 min / Absorbance After 30 min: absorbance at 450 nm, fully dissolved = 100
Method: 1 mg of each PQQ salt shown in Table 7 was added to an acryl-made absorbance measurement cell, and 2 mL of water was added thereto and the absorbance at 450 nm was measured.

[3] = Stability in alkalinity, from the liquid chromatography chart; conditions: solid obtained from alkaline solution
Method: PQQ was identified using the following apparatus.
Apparatus: a high performance liquid chromatography system, Lc-20A, manufactured by Shimadzu Corp.
Column: YMC-Pack ODS-Tms (5 μm), 150×4.6 mm I.D.
Measurement temperature: 40° C.
Detection: absorbance at 260 nm

SMILES	State of the solution after adding ascorbic acid, after 2 hours [1]	State of the solution after adding ascorbic acid, after 1 day [1]	Color change with ascorbic acid in a long-term observation [1]	Solubility Ratio (Test of the solubility)	Solubility (Test of the solubility; water) [mM]	Absorbance After 1 min [2]	Absorbance After 30 min [2]	Decomposed substances / stability in the alkalinity [3]	State of the solution after adding ascorbic acid, after 2 hours ([1]; Trisodium Salt)	State of the solution after adding ascorbic acid, after 1 day ([1]; Trisodium Salt)	Solubility, in words (Test of the solubility; water, 23° C.)	Solubility (Test of the solubility; thermodynamic from solid, water, read-out: Solubility) [mM]	Dissolution speed, in words [2]
O=C(O)c1cc(C(=O)O)c2c(n1)C(=O)C(=O)c1cc(C(=O)O)[nH]c1-2.[K].[K].[K].[K] [Example 7, PQQ tetrapotassium salt]	red solution	red solution	hardly generated color change	10.5	84	71	85	no decomposed substances and was stable even in the alkalinity	–	–	–	–	–
O=C(O)c1cc(C(=O)O)c2c(n1)C(=O)C(=O)c1cc(C(=O)O)[nH]c1-2.[Li].[Li].[Na].[Na] [Example 6, PQQ Disodium Dilithium Salt]	red solution	red solution	–	11	89	–	–	no decomposed substances and was stable even in the alkalinity	–	–	–	–	–
O=C(O)c1cc(C(=O)O)c2c(n1)C(=O)C(=O)c1cc(C(=O)O)[nH]c1-2 [Comp. Ex. 2, PQQ Trisodium Salt, reference compound]	–	–	–	3.8	30.4	–	–	–	brown deposit	brown deposit	–	–	–
O=C(O)c1cc(C(=O)O)c2c(n1)C(=O)C(=O)c1cc(C(=O)O)[nH]c1-2.[Li].[Li].[Li].[Li] [Example 5, PQQ Tetralithium Salt]	red solution	red solution	–	82	655	–	–	no decomposed substances and was stable even in the alkalinity	–	–	more easily dissolved than the PQQ tetrasodium salt	–	–
O=C([O-])c1cc(C(=O)[O-])c2c(n1)C(=O)C(=O)c1cc(C(=O)O)[nH]c1-2.[Na+].[Na+] [Comp. Ex. 1, PQQ Disodium Salt, reference compound]	brown deposit	brown deposit	–	1	7.99	41	48	–	–	–	–	–	–
O=C(O)c1cc(C(=O)O)c2c(n1)C(=O)C(=O)c1cc(C(=O)O)[nH]c1-2 [Example 1, PQQ Tetrasodium Salt]	red solution	red solution	hardly generated color change	58	–	88	92	–	–	–	–	463	higher dissolution speed than the PQQ disodium salt
